Assay results taken from US20080076746A1, “Method of Treating Fish and Crustaceans With a Tellurium Based Immunomodulator” (priority 2003, published 2008).
Entries after “also recorded” stand apart in the source; their conditions may differ.

What was measured:
[1] = system: IL-10L; assay: Serum IL-10L levels in air-exposure stressed fish after AS101 bath immersion (ELISA); format: in vivo
Method: For in-vitro studies, AS101 was supplied as PBS solution, pH 7.4, at 4° C. For in-vivo experiments, AS101 powder was dissolved in the appropriate concentration in re-circulating water.
(§1) Fish were subjected to air exposure stress every 60 min for 90 sec during 4 hours (10). The fish were then divided into groups of 3, each separately held in 40 L plastic containers at 28°±2° C.
Fish blood was coagulated during 2 hours at room temperature, then centrifuged for 10 min at 1800×g. IL-10L levels were quantified in the collected sera using ELISA (Human Interleukin-10 ELISA Kit, pierce-endogen) according to manufacturer's instructions.

[2] = system: Aeromonas salmonicida; assay: Stressed fish infected with Aeromonas salmonicida and immersed in soluble AS101; format: in vivo, goldfish (Carassius auratus); settings: vs stressed infected fish not treated with AS101
Method: as §1

[3] = system: tilapia IL-10L; assay: AS101 effect on intracellular IL-10L levels of tilapia PBL cell cultures (Western blot); format: cell-based, Tilapia hybrids (Oreochromis niloticus X O. aureus); settings: 0.5 μg/ml AS101; dose-dependant; FIG. 1
Method: For in-vitro studies, AS101 was supplied as PBS solution, pH 7.4, at 4° C. For in-vivo experiments, AS101 powder was dissolved in the appropriate concentration in re-circulating water. PBL (peripheral blood leukocytes) were isolated from heparinized blood on a ficoll paque bed (Amersham Bioscience) and cultured as previously reported (9). For AS101 treatments, AS101 was added directly to the cultures at final concentration of 0.025 to 25 μg/ml, preferably 0.05 to 0.5 μg/ml. PBL were lysed as previously reported (6). Samples were electrophoresed on 12% SDS-PAGE and blotted with anti-human-IL-10 mAb (Santa Cruz Biotechnology, Inc sc-8438) (1:660 dilution) and HRP-conjugate secondary Ab (Jackson Immuno-Research) (1:6600 dilution).

[4] = system: tilapia PBL (peripheral blood leukocytes); assay: Cell toxicity in AS101-treated cell cultures (Blue staining); format: cell-based, Tilapia hybrids (Oreochromis niloticus X O. aureus); settings: all AS101 doses, vs control
Method: PBL (peripheral blood leukocytes) were isolated from heparinized blood on a ficoll paque bed (Amersham Bioscience) and cultured as previously reported (9). For AS101 treatments, AS101 was added directly to the cultures at final concentration of 0.025 to 25 μg/ml, preferably 0.05 to 0.5 μg/ml.

Cl[TeH]1(Cl)(Cl)OCCO1 [AS101, ammonium trichloro [dioxyethylene-O, O′] telurate]
serum IL-10L level ([1]; 2 hours post-stress, bath immersion in 20-ppm water solution, maximal effect, decrease from 719 in stressed fish, FIG. 3): 209 pg/mL
serum IL-10L change ([1]; 6 hours after stress induction and bath immersion in different AS101 concentrations, 20 μg/ml most efficient): significant IL-10L decrease
rate of survival ([2]; FIG. 5): higher survival rates; also recorded: higher rate of survival
number of wounds per fish ([2]; p=0.073, FIG. 4): significantly lower number of wounds per fish; also recorded: significantly less wounds
inhibition of intracellular tilapia IL-10L synthesis [3]: complete inhibition
cell death (cell toxicity) [4]: did not show elevated cell death beyond control
